Experimental data: paper PMC7944402, “Resin-acid derivatives bind to multiple sites on the voltage-sensor domain of the Shaker potassium channel” (The Journal of General Physiology, 2021)
Where “and” joins values, the source holds several entries; their conditions need not be identical. Equal entries are not always repeated.

Key:
Type in all cases: cell-based
Shaker KV channel W454A = biological target: T1, Shaker KV channel W454A (Drosophila melanogaster, UniProt P08510, DEL6-46/W454A); assay: Two-electrode voltage clamp in Xenopus oocytes: W454A; conditions: 100 μM, pH 9.0, W454A
T1 construct: expressed in transfected cells; host or cells: Xenopus laevis oocytes (RNA injection)
T1 sequence (P08510 other isoform, or with tags, fused parts or gaps DEL6-46/W454A): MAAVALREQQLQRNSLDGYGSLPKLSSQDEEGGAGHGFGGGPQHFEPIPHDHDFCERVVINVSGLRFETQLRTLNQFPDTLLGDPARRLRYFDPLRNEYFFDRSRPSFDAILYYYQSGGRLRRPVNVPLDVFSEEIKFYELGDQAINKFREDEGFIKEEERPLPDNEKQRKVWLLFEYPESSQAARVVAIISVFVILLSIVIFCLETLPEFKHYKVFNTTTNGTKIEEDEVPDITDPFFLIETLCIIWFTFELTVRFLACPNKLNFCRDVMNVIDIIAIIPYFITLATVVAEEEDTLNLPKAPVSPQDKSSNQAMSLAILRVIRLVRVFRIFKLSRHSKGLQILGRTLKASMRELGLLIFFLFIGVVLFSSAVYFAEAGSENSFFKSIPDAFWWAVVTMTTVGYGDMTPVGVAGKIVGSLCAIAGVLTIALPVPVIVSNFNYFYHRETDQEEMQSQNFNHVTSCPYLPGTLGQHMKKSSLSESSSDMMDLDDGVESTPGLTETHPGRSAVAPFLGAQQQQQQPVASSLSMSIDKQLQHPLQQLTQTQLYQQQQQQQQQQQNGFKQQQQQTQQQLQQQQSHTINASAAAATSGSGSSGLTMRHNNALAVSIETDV
Excerpt: (§1) The Shaker H4 channel (GenBank accession no. NM_167595.3; [Kamb et al., 1987]), with removed N-type inactivation due to a Δ6-46 deletion (ShH4IR, in Bluescript II KS(+) plasmid; [Hoshi et al., 1990]), is referred to as the WT Shaker KV channel. Addition of two positively charged arginines (M356R/A359R) at the extracellular top of the voltage sensor increases the effect of charged lipophilic compounds ([Ottosson et al., 2014], [2015], [2017]). […] However, for the resin-acid derivatives studied in the present investigation, R362 reduced the effect. Therefore, we specifically refer to the two added arginines just outside S4 (M356R/A359R) as the 2R motif. Mutations were introduced with site-directed mutagenesis and verified with sequencing as described previously ([Börjesson et al., 2010]). RNA injection and oocyte handling were performed as before ([Börjesson et al., 2010]; [Ottosson et al., 2015]). All animal experiments were approved by the Linköping’s local Animal Care and Use Committee.
(§2) Electrophysiological experiments were made 1–6 d after RNA injection. K^+ currents were measured with the two-electrode voltage-clamp technique (GeneClamp 500B amplifier; Axon Instruments) as described previously ([Ottosson et al., 2015]; [Silverå Ejneby et al., 2018]). […]
(§3) The conductance, G(V), was calculated as G(V)=I/(V−VK), (1) where I is the steady-state current measured at the end of each test-voltage sweep (100 ms after onset; Clampfit 10.5; Molecular Devices), V is the absolute membrane voltage, and VK is the reversal potential for K^+ ions (set to −80 mV). […] The resin-acid–induced G(V) shift was calculated as V1/2 (compound) − V1/2 (control). The relative change in GMAX was calculated as GMAX (compound) / GMAX (control). The concentration dependence for the G(V) shifts was calculated as ΔV= ΔVMAX/(1 +EC50/c), (3) where ΔV is the voltage shift, ΔVMAX is the voltage shift at saturating concentration, c is the concentration of the tested compound, and EC50 is the concentration at which half-maximum response occurs.

[1] = biological target: T2, Shaker KV channel R362Q/R365Q/W454A/F280I (Drosophila melanogaster, UniProt P08510, DEL6-46/F280I/R362Q/R365Q/W454A); assay: Two-electrode voltage clamp in Xenopus oocytes: R362Q/R365Q/W454A/F280I; conditions: 100 μM, pH 9.0, R362Q/R365Q/W454A/F280I
T2 construct: expressed in transfected cells; host or cells: Xenopus laevis oocytes (RNA injection)
T2 sequence (P08510 other isoform, or with tags, fused parts or gaps DEL6-46/F280I/R362Q/R365Q/W454A): as the sequence (P08510 other isoform, or with tags, fused parts or gaps DEL6-46/W454A) above, with F239I, R321Q, R324Q counted along it
Excerpt: as §1, with “Mutations were introduced with site-directed mutagenesis and verified with sequencing as described previously ([Börjesson et al., 2010]). RNA injection and oocyte handling were performed as before ([Börjesson et al., 2010]; [Ottosson et al., 2015]). All animal experiments were approved by the Linköping’s local Animal Care and Use Committee.” left out
as §2
(§4) The conductance, G(V), was calculated as G(V)=I/(V−VK), (1) where I is the steady-state current measured at the end of each test-voltage sweep (100 ms after onset; Clampfit 10.5; Molecular Devices), V is the absolute membrane voltage, and VK is the reversal potential for K^+ ions (set to −80 mV). […] The resin-acid–induced G(V) shift was calculated as V1/2 (compound) − V1/2 (control). The relative change in GMAX was calculated as GMAX (compound) / GMAX (control). […]

[2] = biological target: T3, WT Shaker KV channel (ShH4IR) (Drosophila melanogaster, UniProt P08510, DEL6-46); assay: Two-electrode voltage clamp of Shaker KV channels expressed in Xenopus laevis oocytes: WT
T3 construct: expressed in transfected cells; host or cells: Xenopus laevis oocytes (RNA injection)
T3 sequence (P08510 other isoform, or with tags, fused parts or gaps DEL6-46): as the sequence (P08510 other isoform, or with tags, fused parts or gaps DEL6-46/W454A) above, with A413W counted along it
Excerpt: (§5) The Shaker H4 channel (GenBank accession no. NM_167595.3; [Kamb et al., 1987]), with removed N-type inactivation due to a Δ6-46 deletion (ShH4IR, in Bluescript II KS(+) plasmid; [Hoshi et al., 1990]), is referred to as the WT Shaker KV channel. […] Therefore, we specifically refer to the two added arginines just outside S4 (M356R/A359R) as the 2R motif. Mutations were introduced with site-directed mutagenesis and verified with sequencing as described previously ([Börjesson et al., 2010]). RNA injection and oocyte handling were performed as before ([Börjesson et al., 2010]; [Ottosson et al., 2015]). All animal experiments were approved by the Linköping’s local Animal Care and Use Committee.
(§6) Electrophysiological experiments were made 1–6 d after RNA injection. K^+ currents were measured with the two-electrode voltage-clamp technique (GeneClamp 500B amplifier; Axon Instruments) as described previously ([Ottosson et al., 2015]; [Silverå Ejneby et al., 2018]). The amplifier’s leak compensation was used, and the currents were low-pass filtered at 5 kHz. The control solution contained (in mM) 88 NaCl, 1 KCl, 15 HEPES, 0.4 CaCl2, and 0.8 MgCl2, and pH was set with NaOH. All experiments were made at room temperature (20°C–23°C). The holding potential was set to −80 mV (or −100 mV if the mutant was not fully closed at −80 mV).
(§7) Stock solutions were stored at −20°C and diluted in control solution just before experiments. The test solution was added to the oocyte bath manually with a syringe. […] To make sure all Wu50 molecules were negatively charged, the pH of the control solution was set to 9.0 before the experiments.
(§8) The conductance, G(V), was calculated as G(V)=I/(V−VK), (1) where I is the steady-state current measured at the end of each test-voltage sweep (100 ms after onset; Clampfit 10.5; Molecular Devices), V is the absolute membrane voltage, and VK is the reversal potential for K^+ ions (set to −80 mV). The conductance was fitted with a Boltzmann equation (GraphPad Prism 5; GraphPad Software, Inc.) GK(V)=GMAX/{1+exp[(V½−V)/s]}, (2) where GMAX is the amplitude (maximal conductance) of the curve, V is the absolute membrane voltage, V1/2 is the midpoint, and s is the slope. The resin-acid–induced G(V) shift was calculated as V1/2 (compound) − V1/2 (control). The relative change in GMAX was calculated as GMAX (compound) / GMAX (control). The concentration dependence for the G(V) shifts was calculated as ΔV= ΔVMAX/(1 +EC50/c), (3) where ΔV is the voltage shift, ΔVMAX is the voltage shift at saturating concentration, c is the concentration of the tested compound, and EC50 is the concentration at which half-maximum response occurs.

[3] = biological target: T4, Shaker KV channel R362Q/R365Q/W454A (Drosophila melanogaster, UniProt P08510, DEL6-46/R362Q/R365Q/W454A); assay: Two-electrode voltage clamp in Xenopus oocytes: R362Q/R365Q/W454A; conditions: 100 μM, pH 9.0, R362Q/R365Q/W454A
T4 construct: expressed in transfected cells; host or cells: Xenopus laevis oocytes (RNA injection)
T4 sequence (P08510 with tags, fused parts or gaps DEL6-46/R362Q/R365Q/W454A): as the sequence (P08510 other isoform, or with tags, fused parts or gaps DEL6-46/W454A) above, with R321Q, R324Q counted along it
Excerpt: as §1, with “Mutations were introduced with site-directed mutagenesis and verified with sequencing as described previously ([Börjesson et al., 2010]). RNA injection and oocyte handling were performed as before ([Börjesson et al., 2010]; [Ottosson et al., 2015]). All animal experiments were approved by the Linköping’s local Animal Care and Use Committee.” left out
as §2, §4

[4] = biological target: T5, Shaker KV channel with the 2R motif (M356R/A359R) (Drosophila melanogaster, UniProt P08510, A359R/DEL6-46/M356R); assay: Two-electrode voltage clamp in Xenopus oocytes: 2R motif channel
T5 construct: expressed in transfected cells; host or cells: Xenopus laevis oocytes (RNA injection)
T5 sequence (P08510 other isoform, or with tags, fused parts or gaps DEL6-46/M356R/A359R): as the sequence (P08510 other isoform, or with tags, fused parts or gaps DEL6-46/W454A) above, with M315R, A318R, A413W counted along it
Excerpt: as §5, §6, §7, §8

[5] = biological target: T6, Shaker KV channel M356R/A359R/R362Q (Drosophila melanogaster, UniProt P08510, A359R/DEL6-46/M356R/R362Q); assay: Two-electrode voltage clamp in Xenopus oocytes: 2R motif/R362Q
T6 construct: expressed in transfected cells; host or cells: Xenopus laevis oocytes (RNA injection)
T6 sequence (P08510 other isoform, or with tags, fused parts or gaps DEL6-46/M356R/A359R/R362Q): as the sequence (P08510 other isoform, or with tags, fused parts or gaps DEL6-46/W454A) above, with M315R, A318R, R321Q, A413W counted along it
Excerpt: as §1, §6
as §7, with “the experiments. This pH change had only small effects on channel kinetics and the G(V) relation.” for “the experiments.”
as §3

[6] = 100 μM, pH 9.0, M356R/A359R (=2R)
[7] = 100 μM, pH 9.0, M356R/A359R/R362Q

C[C@@]1(C(=O)O)CCC[C@]2(C)c3cc(Cl)c(Cl)c(Cl)c3CC[C@@H]12 [Wu50]
GMAX (rel.) (Shaker KV channel W454A): 0.56 rel. | ΔVG(V) (G(V) shift) (Shaker KV channel W454A): −8.1 ± 0.4 mV and -8.1 mV | GMAX (rel.) [1]: 0.05 rel. | ΔVG(V) (G(V) shift) ([2]; 100 μM, pH 9.0, WT): −25.5 ± 1.4 mV and -25.5 mV | GMAX (rel.) ([2]; 100 μM, pH 9.0, WT, GMAX (compound)/GMAX (control)): 1.36 rel. | EC50 ([2]; WT, pH 9.0, concentration-response (Eq. 3), read-out: EC50 of the G(V) shift (apparent affinity)): 29.1 ± 3.5 µM | GMAX (rel.) [3]: 0.57 rel. | ΔVG(V) (G(V) shift) [3]: −24.7 ± 3.0 mV and -24.7 mV | G(V) shift, representative recording (Fig. 1 D) ([4]; 100 µM, pH 9.0, 2R motif): −40.7 mV | GMAX (rel.) [4, 6]: 1.58 rel. | ΔVG(V) (G(V) shift) [4, 6]: −40.0 ± 2.7 mV and -40.0 mV | Increase of the maximum G(V) shift by the 2R motif ([4]; 2R motif versus WT, Wu50 pH 9.0, Wu161 and Wu181 pH 7.4): 57% | ΔVMAX (maximum G(V) shift) ([4]; 2R motif, pH 9.0, concentration-response (Eq. 3)): −56.5 ± 2.6 mV | EC50 ([4]; 2R motif, pH 9.0, concentration-response (Eq. 3), read-out: EC50 of the G(V) shift (apparent affinity)): 30 ± 5 µM | Increase of the G(V) shift by the 2R motif, in the negative direction ([4]; magnitude depending on the background mutations, 100 μM, pH 9.0): 4–32 mV | G(V) shift, representative recording (Fig. 4 B) ([5]; 100 µM, pH 9.0, 2R motif/R362Q): −59.0 mV | GMAX (rel.) [5, 7]: 1.93 rel. | ΔVG(V) (G(V) shift) [5, 7]: −54.0 ± 2.3 mV and -54.0 mV
